The results in this text go back to PMC3849095, “Trans-chalcone and quercetin down-regulate fatty acid synthase gene expression and reduce ergosterol content in the human pathogenic dermatophyte Trichophyton rubrum” (BMC Complementary and Alternative Medicine, 2013).

The structures appear in SMILES notation. Where two headings read alike, the source gives them in different places.

The target of the experiment is T1, Fatty acid synthase (FAS) (Saccharomyces cerevisiae, UniProt P07149+P19097).
T1 construct: gene FAS1; with FAS2 (alpha subunit of the yeast FAS complex)
Put plainly: FAS activity (absorbance at […] nm, malonyl CoA/acetyl CoA/NADPH) in ammonium sulfate-precipitated yeast protein extract. Format: biochemical.

T1 sequence (P19097 whole entry): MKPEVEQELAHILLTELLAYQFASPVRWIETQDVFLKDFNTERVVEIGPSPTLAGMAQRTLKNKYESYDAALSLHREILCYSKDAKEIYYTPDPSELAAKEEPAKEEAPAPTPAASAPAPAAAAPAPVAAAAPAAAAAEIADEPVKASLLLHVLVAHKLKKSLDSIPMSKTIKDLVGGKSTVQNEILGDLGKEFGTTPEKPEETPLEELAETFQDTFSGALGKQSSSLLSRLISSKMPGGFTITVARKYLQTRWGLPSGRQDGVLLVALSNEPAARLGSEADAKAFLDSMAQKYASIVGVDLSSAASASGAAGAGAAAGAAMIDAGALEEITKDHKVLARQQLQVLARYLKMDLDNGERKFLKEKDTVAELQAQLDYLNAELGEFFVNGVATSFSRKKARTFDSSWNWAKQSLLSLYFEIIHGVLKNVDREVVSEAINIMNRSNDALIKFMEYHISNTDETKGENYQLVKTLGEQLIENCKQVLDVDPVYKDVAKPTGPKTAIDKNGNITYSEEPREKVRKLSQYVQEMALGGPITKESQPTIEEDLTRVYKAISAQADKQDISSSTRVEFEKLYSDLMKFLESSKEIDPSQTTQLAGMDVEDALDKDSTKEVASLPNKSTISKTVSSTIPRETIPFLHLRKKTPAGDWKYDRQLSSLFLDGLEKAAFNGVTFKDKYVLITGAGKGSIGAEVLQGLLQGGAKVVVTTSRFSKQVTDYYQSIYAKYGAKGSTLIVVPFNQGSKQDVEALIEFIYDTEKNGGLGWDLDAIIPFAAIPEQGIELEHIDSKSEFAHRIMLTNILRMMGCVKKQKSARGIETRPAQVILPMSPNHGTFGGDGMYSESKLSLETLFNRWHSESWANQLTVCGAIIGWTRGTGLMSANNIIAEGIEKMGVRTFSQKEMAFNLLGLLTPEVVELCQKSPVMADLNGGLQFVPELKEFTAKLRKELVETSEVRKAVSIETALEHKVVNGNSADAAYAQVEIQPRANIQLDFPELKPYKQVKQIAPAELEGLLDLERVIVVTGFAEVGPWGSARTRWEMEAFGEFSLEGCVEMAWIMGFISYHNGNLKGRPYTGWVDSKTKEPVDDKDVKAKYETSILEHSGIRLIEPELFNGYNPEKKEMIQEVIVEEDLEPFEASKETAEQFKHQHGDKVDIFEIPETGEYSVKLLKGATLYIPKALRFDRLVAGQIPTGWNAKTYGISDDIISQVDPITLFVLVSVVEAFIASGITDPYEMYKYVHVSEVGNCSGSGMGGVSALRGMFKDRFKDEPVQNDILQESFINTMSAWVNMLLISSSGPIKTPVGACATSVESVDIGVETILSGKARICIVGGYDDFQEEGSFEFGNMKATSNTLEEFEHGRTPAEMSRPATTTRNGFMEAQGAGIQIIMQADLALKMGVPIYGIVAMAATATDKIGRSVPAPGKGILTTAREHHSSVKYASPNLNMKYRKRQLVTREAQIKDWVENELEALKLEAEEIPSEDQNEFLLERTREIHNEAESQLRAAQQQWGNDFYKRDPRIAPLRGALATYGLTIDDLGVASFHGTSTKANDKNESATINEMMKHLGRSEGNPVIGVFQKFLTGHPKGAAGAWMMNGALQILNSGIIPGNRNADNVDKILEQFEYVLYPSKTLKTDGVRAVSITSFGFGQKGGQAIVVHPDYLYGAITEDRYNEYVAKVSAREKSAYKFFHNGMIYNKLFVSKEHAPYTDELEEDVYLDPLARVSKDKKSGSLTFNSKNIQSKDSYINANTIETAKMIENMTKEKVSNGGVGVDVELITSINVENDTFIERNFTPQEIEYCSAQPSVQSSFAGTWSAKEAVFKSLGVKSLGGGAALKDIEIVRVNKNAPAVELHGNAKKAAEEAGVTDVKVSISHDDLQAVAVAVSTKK
T1 sequence (P07149 whole entry): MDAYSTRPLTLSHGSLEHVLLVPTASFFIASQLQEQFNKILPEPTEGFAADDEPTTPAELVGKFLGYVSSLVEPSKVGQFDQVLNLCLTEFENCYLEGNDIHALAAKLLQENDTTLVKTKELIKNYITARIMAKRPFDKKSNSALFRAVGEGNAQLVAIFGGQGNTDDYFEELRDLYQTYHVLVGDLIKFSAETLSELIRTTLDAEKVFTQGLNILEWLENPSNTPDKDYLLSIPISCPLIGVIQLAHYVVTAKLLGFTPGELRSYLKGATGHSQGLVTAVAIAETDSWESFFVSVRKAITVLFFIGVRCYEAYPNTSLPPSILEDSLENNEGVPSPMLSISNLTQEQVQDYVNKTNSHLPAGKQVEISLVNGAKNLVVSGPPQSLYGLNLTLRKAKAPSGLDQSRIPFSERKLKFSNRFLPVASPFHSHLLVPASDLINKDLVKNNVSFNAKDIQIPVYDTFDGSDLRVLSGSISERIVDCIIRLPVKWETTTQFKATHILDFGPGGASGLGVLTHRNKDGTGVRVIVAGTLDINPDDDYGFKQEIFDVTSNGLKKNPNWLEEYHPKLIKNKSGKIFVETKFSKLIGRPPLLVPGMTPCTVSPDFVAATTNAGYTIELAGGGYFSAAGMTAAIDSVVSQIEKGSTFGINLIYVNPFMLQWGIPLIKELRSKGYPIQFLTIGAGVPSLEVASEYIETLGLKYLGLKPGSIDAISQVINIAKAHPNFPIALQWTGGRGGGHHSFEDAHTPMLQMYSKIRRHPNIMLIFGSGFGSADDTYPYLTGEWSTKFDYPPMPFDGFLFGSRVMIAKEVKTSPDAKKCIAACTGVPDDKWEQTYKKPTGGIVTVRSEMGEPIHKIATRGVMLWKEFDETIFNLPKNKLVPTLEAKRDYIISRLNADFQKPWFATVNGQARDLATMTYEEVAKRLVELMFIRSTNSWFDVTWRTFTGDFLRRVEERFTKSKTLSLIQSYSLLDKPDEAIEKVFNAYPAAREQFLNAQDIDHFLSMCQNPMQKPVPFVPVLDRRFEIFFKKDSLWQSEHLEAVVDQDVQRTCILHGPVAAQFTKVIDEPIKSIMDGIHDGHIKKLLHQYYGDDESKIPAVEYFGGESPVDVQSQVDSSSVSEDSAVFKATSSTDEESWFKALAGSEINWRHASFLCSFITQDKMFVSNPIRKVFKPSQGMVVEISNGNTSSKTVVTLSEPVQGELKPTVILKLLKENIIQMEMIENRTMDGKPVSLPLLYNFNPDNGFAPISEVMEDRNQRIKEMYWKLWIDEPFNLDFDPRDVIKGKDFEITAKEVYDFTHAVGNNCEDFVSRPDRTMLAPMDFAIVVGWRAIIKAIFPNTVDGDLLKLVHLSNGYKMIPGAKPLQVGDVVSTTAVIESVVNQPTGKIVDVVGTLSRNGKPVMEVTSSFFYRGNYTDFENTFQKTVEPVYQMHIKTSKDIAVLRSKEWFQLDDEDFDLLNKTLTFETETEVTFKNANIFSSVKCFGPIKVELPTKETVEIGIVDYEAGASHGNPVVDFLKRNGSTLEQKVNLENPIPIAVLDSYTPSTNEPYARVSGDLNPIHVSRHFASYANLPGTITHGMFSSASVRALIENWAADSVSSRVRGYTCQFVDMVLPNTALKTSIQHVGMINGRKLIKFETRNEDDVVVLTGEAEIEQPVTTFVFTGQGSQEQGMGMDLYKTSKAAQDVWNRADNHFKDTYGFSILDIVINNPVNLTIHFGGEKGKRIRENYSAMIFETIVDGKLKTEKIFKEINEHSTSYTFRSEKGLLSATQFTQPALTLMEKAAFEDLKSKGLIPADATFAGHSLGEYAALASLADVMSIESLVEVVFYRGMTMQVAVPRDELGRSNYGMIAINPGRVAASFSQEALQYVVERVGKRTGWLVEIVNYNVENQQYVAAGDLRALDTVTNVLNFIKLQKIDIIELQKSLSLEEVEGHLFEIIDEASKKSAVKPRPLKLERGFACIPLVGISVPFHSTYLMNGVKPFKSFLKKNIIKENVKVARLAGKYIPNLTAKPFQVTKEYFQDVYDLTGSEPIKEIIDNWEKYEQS

On to `O=c1c(O)c(-c2ccc(O)c(O)c2)oc2cc(O)cc(O)c12` [QCT, Quercetin], for which the IC50 (read-out: IC50 (μg/mL) (converted)) is 56.6 µM. Turning to `O=C(/C=C/c1ccccc1)c1ccccc1` [T-CHL, Trans-chalcone], under “read-out: IC50 (converted)”, the IC50 is 328 µM.
